From ChEMBL document CHEMBL4196076, “An access to a library of novel triterpene derivatives with a promising pharmacological potential by Ugi and Passerini multicomponent reactions” (Eur J Med Chem, 2018) come the findings set out here.

The structures appear in SMILES notation.

One series relates to MCF7. The series is described as follows: Cytotoxicity against human MCF7 cells after 96 hrs by sulforhodamine-B assay. The format is functional, cell-based. Conditions: MCF7, 96 h. For orientation: Sulforhodamine B stains cellular protein and so reports cell mass.
The subject of another series is FaDu. The series is described as follows: Cytotoxicity against human FADU cells after 96 hrs by sulforhodamine-B assay. The format is functional, cell-based.
Series [1] has as its system A2780. Description: Induction of apoptosis in human A2780 cells assessed as vital cells at 2 uM after 48 hrs by Annexin V-FITC/propidium iodide staining-based flow cytometric analysis (reference value: 78.4 +/- 2.1%). The format is functional. A general note: Flow cytometry measures light scatter and fluorescence of single cells or particles in a stream.
Series [2] deals with A2780. The series is described as follows: Cell cycle arrest in human A2780 cells assessed as accumulation at S phase at 2 uM after 48 hrs by propidium iodide/RNase-staining based flow cytometric analysis (reference value: 29.6 +/- 3.1%). The format is functional.
Series [3] relates to A2780. The series is described as follows: Cell cycle arrest in human A2780 cells assessed as accumulation at G2/M phase at 2 uM after 48 hrs by propidium iodide/RNase-staining based flow cytometric analysis (reference value: 12.9 +/- 1.4%). It is filed as functional.
The subject of series [4] is A2780. Description: Induction of apoptosis in human A2780 cells assessed as apoptotic cells at 2 uM after 48 hrs by Annexin V-FITC/propidium iodide staining-based flow cytometric analysis (reference value: 2.8 +/- 2.1%). It is filed as functional.
In series [5] the test system is A2780. The series is described as follows: Cell cycle arrest in human A2780 cells assessed as accumulation at G0/G1 phase at 2 uM after 48 hrs by propidium iodide/RNase-staining based flow cytometric analysis (reference value: 57.5 +/- 4.5%). It is filed as functional.
For a further series, the system named is 518A2. The series is described as follows: Cytotoxicity against human 518A2 cells after 96 hrs by sulforhodamine-B assay. The format is functional, cell-based. The following applies: 518A2, 96 h.
The subject of series [6] is A2780. Description: Induction of apoptosis in human A2780 cells assessed as secondary necrotic cells at 2 uM after 48 hrs by Annexin V-FITC/propidium iodide staining-based flow cytometric analysis (reference value: 8.2 +/- 0.7%). It is filed as functional.
Series [7] relates to A2780. Description: Cell cycle arrest in human A2780 cells assessed as accumulation at sub-G1 phase at 2 uM after 48 hrs by propidium iodide/RNase-staining based flow cytometric analysis. The format is functional.
In series [8] the test system is A2780. Description: Cytotoxicity against human A2780 cells after 96 hrs by sulforhodamine-B assay. It is filed as functional, cell-based. The following applies: A2780, 96 h.
For another series, the system named is A549. The series is described as follows: Cytotoxicity against human A549 cells after 96 hrs by sulforhodamine-B assay. It is filed as functional, cell-based. Conditions: A549, 96 h.
In a further series the test system is HT-29. Description: Cytotoxicity against human HT-29 cells after 96 hrs by sulforhodamine-B assay. The following applies: HT-29, 96 h. The format is functional, cell-based.
The next series has as its system NIH3T3. The series is described as follows: Cytotoxicity against mouse NIH/3T3 cells after 96 hrs by sulforhodamine-B assay. The format is cell-based. The following applies: NIH3T3, 96 h.
The subject of series [9] is A2780. The series is described as follows: Induction of apoptosis in human A2780 cells assessed as necrotic cells at 2 uM after 48 hrs by Annexin V-FITC/propidium iodide staining-based flow cytometric analysis (reference value: 10.6 +/- 1.2%). The format is functional.
For series [10], the system named is A2780. Description: Induction of apoptosis in human A2780 cells assessed as secondary necrotic cells at 1.2 uM after 48 hrs by Annexin V-FITC/propidium iodide staining-based flow cytometric analysis (reference value: 8.2 +/- 0.7%). The format is functional.
Series [11] has as its system A2780. The series is described as follows: Cytotoxicity against human A2780 cells assessed as morphological changes after 48 hrs by acridine orange/propidium iodide staining based fluorescence microscopic method. It is filed as functional, cell-based.
Series [12] deals with A2780. The series is described as follows: Induction of apoptosis in human A2780 cells assessed as vital cells at 1.2 uM after 48 hrs by Annexin V-FITC/propidium iodide staining-based flow cytometric analysis (reference value: 78.4 +/- 2.1%). It is filed as functional.
For series [13], the system named is A2780. Description: Cell cycle arrest in human A2780 cells assessed as accumulation at sub-G1 phase at 1.2 uM after 48 hrs by propidium iodide/RNase-staining based flow cytometric analysis. The format is functional.
Series [14] can be described thus: Selectivity index, ratio of EC50 for mouse NIH/3T3 cells to EC50 for human A2780 cells. The format is toxicity. Conditions: NIH/3T3 cells and A2780 cells, read-out: Ratio EC50.
Series [15] concerns A2780. The series is described as follows: Cell cycle arrest in human A2780 cells assessed as accumulation at S phase at 1.2 uM after 48 hrs by propidium iodide/RNase-staining based flow cytometric analysis (reference value: 29.6 +/- 3.1%). It is filed as functional.
The test system of series [16] is A2780. The series is described as follows: Induction of apoptosis in human A2780 cells assessed as necrotic cells at 1.2 uM after 48 hrs by Annexin V-FITC/propidium iodide staining-based flow cytometric analysis (reference value: 10.6 +/- 1.2%). It is filed as functional.
Series [17] has as its system A2780. The series is described as follows: Cell cycle arrest in human A2780 cells assessed as accumulation at G0/G1 phase at 1.2 uM after 48 hrs by propidium iodide/RNase-staining based flow cytometric analysis (reference value: 57.5 +/- 4.5%). It is filed as functional.
For series [18], the system named is A2780. The series is described as follows: Cell cycle arrest in human A2780 cells assessed as accumulation at G2/M phase at 1.2 uM after 48 hrs by propidium iodide/RNase-staining based flow cytometric analysis (reference value: 12.9 +/- 1.4%). The format is functional.
Series [19] concerns A2780. Description: Induction of apoptosis in human A2780 cells assessed as apoptotic cells at 1.2 uM after 48 hrs by Annexin V-FITC/propidium iodide staining-based flow cytometric analysis (reference value: 2.8 +/- 2.1%). It is filed as functional.

As a reminder, the EC50 is the concentration that produces a half-maximal response. Take `C=CCN(CC(=O)NC(C)(C)C)C(=O)[C@]12CCC(C)(C)C[C@H]1C1=CC[C@@H]3[C@@]4(C)C[C@@H](OC(C)=O)[C@H](OC(C)=O)C(C)(C)[C@@H]4CC[C@@]3(C)[C@]1(C)CC2`: the EC50 with MCF7 was determined as 4100 nM; in the series on FaDu it was 4800 nM; in the series with 518A2, 2900 nM; with A2780 [8] it was 500 nM; with A549 it was 4400 nM; with HT-29, 3900 nM. For the same compound, the midpoint of the response in the series with NIH3T3, the EC50, lay at 7800 nM. The Activity is 61.7% in the series on A2780 [1]; 31.7% with A2780 [2]; 6.3% in the series with A2780 [3]; 9.9% in the series with A2780 [4]; 56.8% in the series on A2780 [5]; 14.6% in the series on A2780 [6]. Also, the Activity with A2780 [7] is 5.3%; in the series on A2780 [9], 13.7%.

Regarding `CC(=O)O[C@@H]1C[C@]2(C)[C@H]3CC=C4[C@@H]5CC(C)(C)CC[C@]5(C(=O)N(CC(=O)NCc5ccccc5)Cc5ccccc5)CC[C@@]4(C)[C@]3(C)CC[C@H]2C(C)(C)[C@H]1OC(C)=O`, the half-maximal effective concentration (EC50) came out at 2100 nM in the series on MCF7; 2100 nM in the series with FaDu; 1200 nM in the series on 518A2; 300 nM in the series with A2780 [8]; 2200 nM with A549; 2100 nM with HT-29. Also, in the series on NIH3T3, the EC50 was found to be 21900 nM. The Activity in the series with A2780 [10] is 11.5%; in the series on A2780 [1], 55.1%; in the series with A2780 [2], 30.7%; in the series with A2780 [3], 5.1%; in the series with A2780 [11], “Dose-dependent effect”; in the series with A2780 [12], 72.7%. Also, the Activity worked out at 6.8% with A2780 [13]; 8.4% in the series on A2780 [4]; 60.3% in the series with A2780 [5]; 19.8% with A2780 [6]; 4.6% in the series on A2780 [7]; 28.7% with A2780 [15]. Besides, the Activity with A2780 [9] came to 16.7%; in the series with A2780 [16] it was 11.6%; in the series on A2780 [17], 57.1%; in the series with A2780 [18], 7.6%; with A2780 [19] it was 4.2%. Moreover, the selectivity ratio in series [14] came out at 73.
